Laboratory results from PubChem BioAssay AID330 (DTP/NCI, 2004).
“And” between values parts separate entries of the source, which are not always exact repeats. Equal entries are not always repeated. Toxic doses and inconclusive results are not listed. The calls were made as follows: active = survival T/C of 150% or more; inactive = T/C below 125% in these data.

Test system: P388 leukemia ip, CD2F1 mice, survival T/C
Assay: NCI In Vivo Anticancer Drug Screen. Data for tumor model P388 Leukemia (intraperitoneal) in CD2F1 (CDF1) mice
Conditions: endpoint: median survival time, higher = longer survival
In short: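 Mice carrying the transplanted tumor received test compound or vehicle. Survival was recorded in each group, and the value is the treated-group measurement divided by that of the vehicle-treated control group.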

[1] = dose: 100.0 mg/kg/injection, schedule: Q04DX003 (ip), vehicle: saline with Tween-80
[2] = dose: 200.0 mg/kg/injection, schedule: Q04DX003 (ip), vehicle: saline with Tween-80
[3] = dose: 60.0 mg/kg/injection, schedule: Q01DX005 (ip), vehicle: Klucel (hydroxypropylcellulose) (HPC)
[4] = dose: 120.0 mg/kg/injection, schedule: Q01DX005 (ip), vehicle: Klucel (hydroxypropylcellulose) (HPC)
[5] = dose: 240.0 mg/kg/injection, schedule: Q01DX005 (ip), vehicle: Klucel (hydroxypropylcellulose) (HPC)
[6] = dose: 50.0 mg/kg/injection, schedule: Q01DX005 (ip), vehicle: Klucel (hydroxypropylcellulose) (HPC)
[7] = dose: 100.0 mg/kg/injection, schedule: Q01DX005 (ip), vehicle: Klucel (hydroxypropylcellulose) (HPC)
[8] = dose: 200.0 mg/kg/injection, schedule: Q01DX005 (ip), vehicle: Klucel (hydroxypropylcellulose) (HPC)
[9] = dose: 50.0 mg/kg/injection, schedule: Q01DX009 (ip), vehicle: saline with Tween-80
[10] = dose: 100.0 mg/kg/injection, schedule: Q01DX009 (ip), vehicle: saline with Tween-80
[11] = dose: 200.0 mg/kg/injection, schedule: Q01DX009 (ip), vehicle: saline with Tween-80
[12] = dose: 50.0 mg/kg/injection, schedule: Q01DX009 (ip), vehicle: saline
[13] = dose: 100.0 mg/kg/injection, schedule: Q01DX009 (ip), vehicle: saline
[14] = dose: 25.0 mg/kg/injection, schedule: Q01DX009 (ip), vehicle: saline with Tween-80

Measured: T/C

C=C1C(=O)OCC1C(=O)OCC (stereo not drawn)
inactive: [1] 103 % of control | [2] 107 % of control | dose: 400.0 mg/kg/injection, schedule: Q04DX003 (ip), vehicle: saline with Tween-80 98 % of control

c1ccc2c(CCc3c4ccccc4nc4ccccc34)c3ccccc3nc2c1
inactive: dose: 100.0 mg/kg/injection, schedule: Q01DX001 (ip), vehicle: Klucel (hydroxypropylcellulose) (HPC) 102 % of control | dose: 200.0 mg/kg/injection, schedule: Q01DX001 (ip), vehicle: Klucel (hydroxypropylcellulose) (HPC) 105 % of control | dose: 400.0 mg/kg/injection, schedule: Q01DX001 (ip), vehicle: Klucel (hydroxypropylcellulose) (HPC) 105 % of control

CCCC1(N2CCCC2)C(=O)NC(=O)N(CC)C1=O (stereo not drawn)
inactive: [3] 108 % of control | [4] 93 % of control | [5] 101 % of control

CC(=O)Nc1c(O)c2ccccc2c2ccccc12
inactive: [6] 87 % of control | [7] 92 % of control | [8] 86 % of control

COc1cccc2c1C(=O)c1c(O)c3c(c(O)c1C2=O)C[C@@](O)(C(O)CO)C[C@@H]3OC1CC(N(Cc2ccccc2)Cc2ccccc2)C(O)C(C)O1 (stereo partly drawn)
inactive: dose: 6.25 mg/kg/injection, schedule: Q04DX003 (ip), vehicle: water 100 % of control | dose: 12.5 mg/kg/injection, schedule: Q04DX003 (ip), vehicle: water 109 % of control | dose: 25.0 mg/kg/injection, schedule: Q04DX003 (ip), vehicle: water 100 % of control
active: dose: 50.0 mg/kg/injection, schedule: Q04DX003 (ip), vehicle: water 170 % of control | dose: 100.0 mg/kg/injection, schedule: Q04DX003 (ip), vehicle: water 209 % of control and 212 % of control

Cc1nc2ccccc2c(N)c1-c1cc(C)c2c(C)nc3ccccc3c2n1
inactive: dose: 25.0 mg/kg/injection, schedule: Q01DX005 (ip), vehicle: Klucel (hydroxypropylcellulose) (HPC) 88 % of control | [6] 87 % of control | [7] 90 % of control | [8] 88 % of control

Oc1c(Cl)cc(Cl)cc1C=Nc1cc(C(F)(F)F)ccc1N1CCc2ccccc2C1
inactive: [9] 98 % of control | [10] 95 % of control | [11] 96 % of control

Cc1ccc(NC(=O)N(C)C)cc1NC(=O)N(C)C
inactive: dose: 60.0 mg/kg/injection, schedule: Q01DX005 (ip), vehicle: saline with Tween-80 100 % of control | dose: 120.0 mg/kg/injection, schedule: Q01DX005 (ip), vehicle: saline with Tween-80 100 % of control | dose: 240.0 mg/kg/injection, schedule: Q01DX005 (ip), vehicle: saline with Tween-80 101 % of control

Nc1ccc(-c2ccc(N)cc2)cc1
inactive: [10] 90 % of control | [11] 100 % of control | dose: 400.0 mg/kg/injection, schedule: Q01DX009 (ip), vehicle: saline with Tween-80 95 % of control

Cc1c(NC(=O)C(=O)O)ccc2c(=O)cc(C(=O)O)[nH]c12
inactive: dose: 50.0 mg/kg/injection, schedule: Q01DX009 (ip), vehicle: Klucel (hydroxypropylcellulose) (HPC) 102 % of control and 118 % of control | dose: 100.0 mg/kg/injection, schedule: Q01DX009 (ip), vehicle: Klucel (hydroxypropylcellulose) (HPC) 109 % of control and 117 % of control | dose: 200.0 mg/kg/injection, schedule: Q01DX009 (ip), vehicle: Klucel (hydroxypropylcellulose) (HPC) 111 % of control and 124 % of control

CCC/C=C/C=C/C(=O)OC1C(C)C2(O)C3C=C(C)C(=O)C3CC(COC(C)=O)=CC2C2C(C)(C)C12OC(=O)C(C)C (stereo not drawn)
inactive: dose: 0.12 mg/kg/injection, schedule: Q01DX009 (ip), vehicle: Klucel (hydroxypropylcellulose) (HPC) 111 % of control | dose: 0.25 mg/kg/injection, schedule: Q01DX009 (ip), vehicle: Klucel (hydroxypropylcellulose) (HPC) 103 % of control | dose: 0.5 mg/kg/injection, schedule: Q01DX009 (ip), vehicle: Klucel (hydroxypropylcellulose) (HPC) 107 % of control | dose: 1.0 mg/kg/injection, schedule: Q01DX005 (ip), vehicle: distilled water + Tween-80 109 % of control and 113 % of control | dose: 1.0 mg/kg/injection, schedule: Q01DX009 (ip), vehicle: Klucel (hydroxypropylcellulose) (HPC) 106 % of control | dose: 2.0 mg/kg/injection, schedule: Q01DX005 (ip), vehicle: distilled water + Tween-80 121 % of control and 123 % of control | dose: 2.0 mg/kg/injection, schedule: Q01DX005 (ip), vehicle: saline + alcohol 115 % of control | dose: 4.0 mg/kg/injection, schedule: Q01DX005 (ip), vehicle: saline + alcohol 123 % of control

CC(=O)Nc1ccc(N=Nc2c(S(=O)(=O)O)cc3cc(NC(C)=O)ccc3c2O)cc1
inactive: dose: 50.0 mg/kg/injection, schedule: Q01DX005 (ip), vehicle: saline 98 % of control and 100 % of control | dose: 100.0 mg/kg/injection, schedule: Q01DX005 (ip), vehicle: saline 100 % of control and 103 % of control | dose: 200.0 mg/kg/injection, schedule: Q01DX005 (ip), vehicle: saline 99 % of control

CC1(c2ccccc2)Nc2ccccc2N(C(=O)c2ccccc2)C1c1ccccc1 (stereo not drawn)
inactive: [3] 91 % of control | [4] 90 % of control

O=C1c2cccc3cccc(c23)C(=O)N1CCCCCCCCN1C(=O)c2cccc3cccc(c23)C1=O
inactive: dose: 50.0 mg/kg/injection, schedule: Q01DX005 (ip), vehicle: saline with Tween-80 96 % of control | dose: 100.0 mg/kg/injection, schedule: Q01DX005 (ip), vehicle: saline with Tween-80 95 % of control | dose: 200.0 mg/kg/injection, schedule: Q01DX005 (ip), vehicle: saline with Tween-80 87 % of control

Cc1cc(C)n2ncnc2n1
inactive: dose: 12.5 mg/kg/injection, schedule: Q01DX009 (ip), vehicle: saline 105 % of control | dose: 25.0 mg/kg/injection, schedule: Q01DX009 (ip), vehicle: saline 100 % of control | [12] 100 % of control | [13] 103 % of control

CCCCC/C(C=C(C#N)C#N)=C/c1ccccc1
inactive: [14] 103 % of control and 86 % of control | [9] 100 % of control and 123 % of control and 91 % of control | [10] 119 % of control and 92 % of control | [11] 111 % of control

O=C1C=C(NCCC2CCCN3CCCCC23)C(=O)c2ccccc21 (stereo not drawn)
inactive: dose: 12.5 mg/kg/injection, schedule: Q01DX001 (ip), vehicle: Klucel (hydroxypropylcellulose) (HPC) 98 % of control | dose: 25.0 mg/kg/injection, schedule: Q01DX001 (ip), vehicle: Klucel (hydroxypropylcellulose) (HPC) 95 % of control | dose: 50.0 mg/kg/injection, schedule: Q01DX001 (ip), vehicle: Klucel (hydroxypropylcellulose) (HPC) 100 % of control

Cc1ccc(C(SCC(N)C(=O)O)(c2ccccc2)c2ccccc2)cc1 (stereo not drawn)
active: dose: 12.5 mg/kg/injection, schedule: Q01DX009 (ip), vehicle: saline with Tween-80 186 % of control | [14] 168 % of control | dose: 50.0 mg/kg/injection, schedule: Q04DX003 (ip), vehicle: saline with Tween-80 177 % of control | [1] 218 % of control | dose: 132.0 mg/kg/injection, schedule: Q04DX003 (ip), vehicle: saline with Tween-80 195 % of control | [2] 254 % of control and 272 % of control | dose: 300.0 mg/kg/injection, schedule: Q04DX003 (ip), vehicle: saline with Tween-80 263 % of control

C=CCN(NC(=O)c1ccccc1)C(=O)c1ccccc1
inactive: dose: 100.0 mg/kg/injection, schedule: Q04DX003 (ip), vehicle: saline 105 % of control | dose: 200.0 mg/kg/injection, schedule: Q04DX003 (ip), vehicle: saline 100 % of control | dose: 400.0 mg/kg/injection, schedule: Q04DX003 (ip), vehicle: saline 110 % of control

CN(C)CCCNc1c2ccccc2nc2cc([N+](=O)[O-])ccc12
inactive: dose: 0.1 mg/kg/injection, schedule: Q01DX009 (ip), vehicle: water 103 % of control | dose: 0.2 mg/kg/injection, schedule: Q01DX009 (ip), vehicle: water 104 % of control | dose: 0.39 mg/kg/injection, schedule: Q01DX009 (ip), vehicle: water 100 % of control | dose: 0.78 mg/kg/injection, schedule: Q01DX009 (ip), vehicle: water 100 % of control and 117 % of control | dose: 1.56 mg/kg/injection, schedule: Q01DX009 (ip), vehicle: water 102 % of control and 108 % of control | dose: 3.13 mg/kg/injection, schedule: Q01DX009 (ip), vehicle: water 123 % of control | dose: 6.25 mg/kg/injection, schedule: Q01DX009 (ip), vehicle: water 95 % of control

COC(=O)C[N+](=O)[O-]
inactive: [12] 103 % of control | [13] 99 % of control | dose: 200.0 mg/kg/injection, schedule: Q01DX009 (ip), vehicle: saline 110 % of control

CC1CC(=O)NN1 (stereo not drawn)
inactive: [3] 100 % of control | [4] 101 % of control | [5] 107 % of control
